The subject of assay [1] is Radical scavenging activity. Description: Antioxidant activity assessed as DPPH radical scavenging activity at 1 mg/ml after 20 min by spectrophotometric analysis. It is filed as functional.
Assay [2] can be described thus: Antioxidant activity assessed as concentration equivalent of 0.5 absorbance glutathione for potassium ferricyanide reduction after 20 min by spectrophotometric assay. It is filed as functional.

We go through 13 molecules from ChEMBL document CHEMBL3046089, “A study on the reactions of alkyl 4,6-bis(4-fluorophenyl)-2-oxocyclohex-3-ene-1-carboxylate and in vitro antioxidant activity of derivatives” (Med Chem Res, 2013).

Take `N[C@@H](CCC(=O)N[C@@H](CS)C(=O)NCC(=O)O)C(=O)O`: the values for the Activity in assay [1] and in assay [2] were 92.1% and 0.595 mg/mL, respectively.
On the same counts, the results for `CCOC(=O)c1c(OC)cc(-c2ccc(F)cc2)cc1-c1ccc(F)cc1` are 50.2% and 22.7 mg/mL.
On the same counts, the results for `COC(=O)C1=C(N)C=C(c2ccc(F)cc2)CC1c1ccc(F)cc1` (stereo unspecified) are 40.9% and 5.55 mg/mL.
For `O=c1c2c(-c3ccc(F)cc3)cc(-c3ccc(F)cc3)cc2[nH]n1-c1ccccc1`, in that order: 95.2% and 5.55 mg/mL.
For `O=c1c2c([nH]n1-c1ccc([N+](=O)[O-])cc1)C=C(c1ccc(F)cc1)CC2c1ccc(F)cc1` (stereo unspecified), the Activity came out at 94.4% in assay [1] and 3.52 mg/mL in assay [2].
On the same counts, the results for `CCOC(=O)C1/C(=N/NC(N)=O)C=C(c2ccc(F)cc2)CC1c1ccc(F)cc1` (stereo unspecified) are 66.5% and 8.33 mg/mL.
On the same counts, the results for `O=c1[nH][nH]c2c1C(c1ccc(F)cc1)CC(c1ccc(F)cc1)=C2` (stereo unspecified) are 95.9% and 1.81 mg/mL.
On the same counts, the results for `COC(=O)c1c(OC)cc(-c2ccc(F)cc2)cc1-c1ccc(F)cc1` are 49.1% and 14.3 mg/mL.
In the case of `N/N=C(N)/N=C1/C=C(c2ccc(F)cc2)CC(c2ccc(F)cc2)C1` (stereo unspecified), the Activity was found to be 89.2% in assay [1] and 4.03 mg/mL in assay [2].
On the same counts, the results for `COC(=O)C1/C(=N/NC(N)=O)C=C(c2ccc(F)cc2)CC1c1ccc(F)cc1` (stereo unspecified) are 65.4% and 20 mg/mL.
On the same counts, the results for `O=C1Nc2ccccc2Nc2cc(-c3ccc(F)cc3)cc(-c3ccc(F)cc3)c21` are 58.7% and 2.64 mg/mL.
On the same counts, the results for `CCOC(=O)C1=C(N)C=C(c2ccc(F)cc2)CC1c1ccc(F)cc1` (stereo unspecified) are 68% and 25 mg/mL.
Regarding `O/N=C1/C=C(c2ccc(F)cc2)CC(c2ccc(F)cc2)C1` (stereo unspecified), the Activity in assay [1] is 89.2%; in assay [2] it was 4.54 mg/mL.
